{"source": "patent US20140248227A1", "about": "“DEODORIZING COMPOSITIONS” (Henkel AG & Co. KGaA, priority 2011, published 2014)"}
{"experiment": "odor evaluation of filter papers treated with active agent and artificial perspiration mixture by six trained testers", "details": "0.5-wt % solution in ethanol on filter paper; 24 hours at room temperature; scale 0 (no difference from ethanol control) to 4 (very much better odor reduction)", "source_text": "An artificial perspiration mixture was produced by mixing different short-chain fatty acids at specific quantitative ratios (C6, C8, C9, C10, isovaleric acid). respective 0.5-wt % solutions in ethanol were produced of each of the active agents and active-agent combinations to be tested, applied in a standardized quantity onto filter paper, and dried for one hour at room temperature. The artificial perspiration mixture was then applied in a standardized quantity, and the filters were stored for 24 hours at room temperature in a closed container. An odor evaluation of the samples was carried out by six trained testers using a scale from 0 (no difference from ethanol control) to 4 (very much better odor reduction as compared with ethanol control).", "units": {"reduction in perspiration odor as compared with the ethanol control": "units"}}
{"smiles": "CC(C)[C@@H]1CC[C@@H](C)C[C@H]1O", "note": "(racemic) [DL-Menthol, DL-menthol]", "reduction in perspiration odor as compared with the ethanol control": 1.67}
{"smiles": "C/C=C\\c1ccc(OC)cc1", "note": "[anethole]", "reduction in perspiration odor as compared with the ethanol control": 2.42}
{"smiles": "CC12CCC(CC1)C(C)(C)O2", "note": "[eucalyptol, 1,3,3-trimethyl-2-oxabicyclo[2.2.2]octane]", "reduction in perspiration odor as compared with the ethanol control": 0.92}
